# Laboratory results: BindingDB's records for patent US11529321 (Wigen Biomedicine Technology (Shanghai), 2022)
# Biological target: Microtubule-associated proteins 1A/1B light chain 3B (Homo sapiens, UniProt Q9GZQ8)
# Test: Molecular Level Experiments of Targeting LC3B
row,IC50,Structure (SMILES)
1,in the range around 9 µM,"O=C1CC(c2ccccc2)CC(=O)C1=CNCCN1CCN(C(=S)Nc2cccc(Cl)c2)CC1 (stereo not drawn) [US11529321, Compound 31]"
2,in the range around 9 µM,"C=CCNC(=S)N1CCN(CCNC=C2C(=O)CC(c3ccco3)CC2=O)CC1 (stereo not drawn) [US11529321, Compound 39]"
3,in the range around 9 µM,"CCCCCC(=O)N1CCN(CCNC=C2C(=O)CC(c3ccco3)CC2=O)CC1 (stereo not drawn) [US11529321, Compound 58]"
